Where “and” joins values, the source holds several entries; their conditions need not be identical. Identical values can stand only once.
Assay: mn = molality of the nth substance listed, in mol/kg
Conditions: Liquid; for speed of sound: 100 kPa, Sing-around technique in a fixed-path interferometer; for mass density: 101 kPa, Vibrating tube method

CCCCCCn1cc[n+](C)c1.[Cl-] [1-hexyl-3-methylimidazolium chloride] + O
speed of sound, Frequency=3 MHz
Conditions	288.15 K	293.15 K	298.15 K	303.15 K	308.15 K
m1 = 0.01	1474.3 m/s and 1468.6 m/s	1484.6 m/s and 1490.1 m/s	1498.7 m/s and 1505 m/s	1511 m/s and 1517 m/s	1521.3 m/s and 1525.1 m/s
m1 = 0.03	1474.3 m/s	1490.1 m/s	1505 m/s	1517 m/s	1525.1 m/s

mass density [kg/m3]
Conditions	288.15 K	293.15 K	298.15 K	303.15 K	308.15 K
m1 = 0.01	999.911	999.007	997.841	996.436	994.818
m1 = 0.03	1000.17	999.246	998.052	996.623	995.004

O=P([O-])([O-])O.[K+].[K+] [dipotassium hydrogen phosphate] + O
Conditions	mass density, 288.15 K [kg/m3]	mass density, 293.15 K [kg/m3]	mass density, 298.15 K [kg/m3]	mass density, 303.15 K [kg/m3]	mass density, 308.15 K [kg/m3]	speed of sound, 288.15 K [m/s]	speed of sound, 293.15 K [m/s]	speed of sound, 298.15 K [m/s]	speed of sound, 303.15 K [m/s]	speed of sound, 308.15 K [m/s]
m1 = 0.01907	1001.68	1000.76	999.574	998.164	996.53	1466.9	1484.8	1499.7	1514.5	1522.3
m1 = 0.04894	1005.7	1004.75	1003.53	1002.09	1000.43	1471.1	1489	1503.9	1518.7	1526.5
m1 = 0.06838	1008.31	1007.35	1006.11	1004.65	1002.97	1473.8	1491.8	1506.6	1521.5	1529.3
m1 = 0.09992	1012.56	1011.57	1010.29	1008.79	1007.09	1478.3	1496.2	1511.1	1525.9	1533.7
m1 = 0.1992	1025.92	1024.84	1023.44	1021.85	1020.05	1492.2	1510.2	1525	1539.9	1547.7
m1 = 0.2993	1039.39	1038.23	1036.7	1035.01	1033.13	1506.3	1524.2	1539.1	1554	1561.8
m1 = 0.3965	1052.47	1051.22	1049.58	1047.79	1045.82	1520	1537.9	1552.8	1567.6	1575.4
m1 = 0.4942	1065.63	1064.29	1062.53	1060.65	1058.58	1533.8	1551.7	1566.5	1581.4	1589.2
m1 = 0.6	1079.87	1078.43	1076.55	1074.56	1072.4	1548.6	1566.6	1581.4	1596.3	1604.1
m1 = 0.6969	1092.92	1091.39	1089.39	1087.3	1085.06	1562.3	1580.2	1595.1	1609.9	1617.7
m1 = 0.7929	1105.83	1104.22	1102.11	1099.92	1097.59	1575.8	1593.7	1608.6	1623.4	1631.2
m1 = 0.8916	1119.12	1117.41	1115.18	1112.9	1110.48	1589.7	1607.6	1622.5	1637.3	1645.1
m1 = 0.9907	1132.46	1130.67	1128.32	1125.93	1123.43	1603.6	1621.5	1636.4	1651.2	1659

O=P([O-])([O-])O.[Na+].[Na+] [disodium hydrogen phosphate] + O
speed of sound [m/s], Frequency=3 MHz
Conditions	288.15 K	293.15 K	298.15 K	303.15 K	308.15 K
m1 = 0.02076	1467.8	1485.6	1500.3	1515	1522.8
m1 = 0.04991	1472.7	1490.4	1505	1519.3	1527.1
m1 = 0.07047	1476.2	1493.8	1508.3	1522.4	1530.2
m1 = 0.1014	1481.5	1498.9	1513.2	1527.1	1534.9
m1 = 0.1983	1497.9	1514.9	1528.8	1541.6	1549.4
m1 = 0.2992	1515.1	1531.5	1544.9	1556.8	1564.5
m1 = 0.394	1531.2	1547.2	1560.1	1571	1578.8
m1 = 0.4957	1548.5	1564	1576.4	1586.2	1594
m1 = 0.5971	1565.8	1580.7	1592.6	1601.5	1609.3
m1 = 0.6947	1582.4	1596.8	1608.2	1616.1	1623.9
m1 = 0.7942	1599.3	1613.3	1624.2	1631	1638.8
m1 = 0.876	1613.2	1626.8	1637.3	1643.3	1651.1
m1 = 0.976	1630.2	1643.3	1653.3	1658.3	1666.1

mass density [kg/m3]
Conditions	288.15 K	293.15 K	298.15 K	303.15 K	308.15 K
m1 = 0.02076	1001.71	1000.78	999.59	998.178	996.536
m1 = 0.04991	1005.35	1004.39	1003.16	1001.72	1000.04
m1 = 0.07047	1007.92	1006.93	1005.68	1004.22	1002.52
m1 = 0.1014	1011.78	1010.76	1009.47	1007.97	1006.24
m1 = 0.1983	1023.89	1022.75	1021.33	1019.74	1017.89
m1 = 0.2992	1036.51	1035.25	1033.7	1032.01	1030.03
m1 = 0.394	1048.36	1046.99	1045.31	1043.53	1041.44
m1 = 0.4957	1061.07	1059.58	1057.77	1055.88	1053.67
m1 = 0.5971	1073.75	1072.14	1070.2	1068.21	1065.88
m1 = 0.6947	1085.95	1084.21	1082.15	1080.06	1077.61
m1 = 0.7942	1098.39	1096.54	1094.34	1092.15	1089.58
m1 = 0.876	1108.62	1106.66	1104.36	1102.1	1099.43
m1 = 0.976	1121.11	1119.04	1116.61	1114.24	1111.45

— the NIST ThermoML archive (doi:10.1021/acs.jced.5b00326)
